This is an account of results in US5102894A, “Substituted piperidine compounds and their use” (Novo Nordisk A/S, priority 1989, dated 1992).

The structures appear in SMILES notation. Counter-ions that a name gives are not always drawn.

The test system of the first test is voltage operated calcium channels (VOC). The experiment in a line: inhibition of depolarization-induced 45Ca uptake into brain synaptosomes (crude P2 fraction). The test is classed as biochemical, male Wistar rat. The settings on record: rat cerebral cortex synaptosomes (P2), KCl-depolarized samples, 15 s uptake at 37° C., pH 7.4; triplicate; from dose response curves. The text has this: The pharmacological properties of the compounds of the invention can be illustrated by determining their capability to inhibit calcium uptake into brain synaptosomes.
Depolarization of neuronal membranes leads to an opening of socalled `voltage operated calcium channels` (VOC) in the membranes which allows a massive influx of calcium from the extracellular space. A crude synaptosomal preparation (socalled P2 fraction) contains small vesicles surrounded by neuronal membrane and it is possible in such a preparation to study a depolarization-induced opening of VOC.
A male Wistar rat is decapitated and the cerebral cortex removed and homogenized in 10 ml of ice-cold 0.32 M sucrose using a glass homogenizer with a teflon pestle. All subsequent steps for isolation of synaptosomes are done at 0°-4° C. The homogenate is centrifuged at 1000×g for 10 min and the resulting supernatant is re-centrifuged at 18000×g for 20 min. This pellet (P2) is resuspended in 0.32 M sucrose (5 ml per g of original tissue) with a teflon pestle.
The tubes are pre- incubated for 30 min on ice and then for 6 min at 37° C. in a water bath.
The incubation is continued for 15 s.
The amount of radioactivity on the filter disc is determined by liquid scintillation spectrometry.
Test substances are dissolved in 10 ml of 48% ethanol at a concentration of 0.44 mg/ml. Dilutions are made in 48% ethanol to give final concentrations of 0.1, 0.3, 1, 3 and 10 μg/ml. Experiments are performed in triplicate. Controls for depolarized and nondepolarized samples are included in the assay and test substances are only tested in depolarized samples.
The IC50 value is estimated from dose response curves.
For `CCCCN1CC[C@@H](c2ccc(C)o2)[C@H](COc2cccc(C(F)(F)F)c2)C1` (relative stereo) [Compound 12, HCl], the “IC50 (concentration of test substance which inhibits 50% of stimulated uptake of 45Ca)” value was determined as 18 µg/mL. The same measure, in the same setting: to `CCCCCN1CC[C@@H](c2cccs2)[C@H](COc2ccccc2C#N)C1` (relative stereo) [Compound 15, (+-) trans 3-(2-cyanophenoxymethyl)-1-pentyl-4-(2-thienyl)piperidine, HCl] belongs 7.2 µg/mL; to `CCCCN1CC[C@@H](c2cccs2)[C@H](COc2cccc(OC)c2)C1` (relative stereo) [Compound 25, (+-) trans 1-butyl-4-(2-thienyl)-3-(3-methoxyphenoxymethyl)piperidine, HCl], 9.1 µg/mL.

`CCCCN1CC[C@@H](c2cccs2)[C@H](COc2ccccc2OC(C)C)C1` (relative stereo) [Compound 27, (+-) trans 1-butyl-3-(2-isopropoxyphenoxymethyl)-4-(2-thienyl)piperidine, oxalate]: the “IC50 (concentration of test substance which inhibits 50% of stimulated uptake of 45Ca)” value is 13 µg/mL. Take `CCCCCN1CC[C@@H](c2cccs2)[C@H](COc2cccc(CN)c2)C1` (relative stereo) [Compound 28, (+-) trans 3-(3-aminomethylphenoxymethyl)-1-pentyl-4-(2-thienyl)piperidine,HCl]: the “IC50 (concentration of test substance which inhibits 50% of stimulated uptake of 45Ca)” value was 30 µg/mL. The same measure, in the same setting: in the case of `CCCCCN1CC[C@@H](c2ccsc2)[C@H](COc2ccc3c(c2)OCO3)C1` (relative stereo) [Compound 30, (+-) trans 3-(3,4-methylenedioxyphenoxymethyl)-1-pentyl-4-(3-thienyl)piperidine, HCl] it was 4.9 µg/mL; in that of `CCCCCN1CC[C@@H](c2ccsc2)[C@H](COc2cccc(C(F)(F)F)c2)C1` (relative stereo) [Compound 31, (+-) trans 1-pentyl-4-(3-thienyl)-3-(3-trifluoromethylphenoxymethyl)piperidine, oxalate], 4.7 µg/mL; in that of `CCCCCN1CC[C@@H](c2ccsc2)[C@H](COc2ccc(Cl)cc2)C1` (relative stereo) [Compound 37, (+-) trans 3-(4-chlorophenoxymethyl)-1-pentyl-4-(3-thienyl)piperidine, HCl], 3.6 µg/mL. The same measure, in the same setting: in the case of `CCCCCN1CC[C@@H](c2ccsc2)[C@H](COc2ccc(C#N)cc2)C1` (relative stereo) [Compound 39, (+-) trans 3-(4-cyanophenoxymethyl)-1-pentyl-4-(3-thienyl)piperidine, HCl] it was 2.7 µg/mL.

Consider `CCCCCN1CC[C@@H](c2ccsc2)[C@H](COc2ccc(OC(F)(F)F)cc2)C1` (relative stereo) [Compound 43, (+-) trans 3-(4-trifluoromethoxyphenoxymethyl)-1-pentyl-4-(3-thienyl)piperidine, HCl], for which the “IC50 (concentration of test substance which inhibits 50% of stimulated uptake of 45Ca)” value came out at 10 µg/mL.

Take `FC(F)(F)c1cccc(OC[C@@H]2CNCC[C@H]2c2ccsc2)c1` (relative stereo) [Compound 44, (+-) trans 4-(thienyl)-3-(3-trifluoromethylphenoxymethyl)piperidine, HCl]: the “IC50 (concentration of test substance which inhibits 50% of stimulated uptake of 45Ca)” value turned out to be 2.8 µg/mL. Turning to `CCC(C)CN1CC[C@@H](c2ccsc2)[C@H](COc2cccc(C(F)(F)F)c2)C1` (relative stereo) [Compound 47, (+-) trans(2-methylbutyl)-4-(3-thienyl)-3-(3-trifluoromethylphenoxymethyl)piperidine, HCl], the “IC50 (concentration of test substance which inhibits 50% of stimulated uptake of 45Ca)” value amounted to 5.8 µg/mL.

The test system of another test is peripheral calcium uptake, e.g. in blood vessels and the heart.
Assay: not given
Conditions: cited from earlier work.
Take `COc1ccc([C@@H]2Sc3ccccc3N(CCN(C)C)C(=O)[C@@H]2OC(C)=O)cc1` [Diltiazem]: the “activity against peripheral calcium uptake” value is “have activity”.

As for `COC(=O)C1=C(C)NC(C)=C(C(=O)OC)C1c1ccccc1[N+](=O)[O-]` [Nifedipine], the “activity against peripheral calcium uptake” value is recorded as “have activity”. In the case of `COc1ccc(CCN(C)CCCC(C#N)(c2ccc(OC)c(OC)c2)C(C)C)cc1OC` (stereo not drawn) [Verapamil], the “activity against peripheral calcium uptake” value is on record as “have activity”.
